Measured values as given in ChEMBL document CHEMBL1126480, “Peptide azoles: A new class of biologically-active dipeptide mmetics” (Bioorg Med Chem Lett, 1993).

Experiments:
Substance-P receptor [1] = target: T1, Substance-P receptor (Cavia porcellus, UniProt P30547); test: The compound was evaluated in vitro for the antagonistic activity against Tachykinin receptor 1 in guinea pig myenteric plexus longitudinal muscle strips.; format: functional; settings: read-out: pA2 (converted)
Substance-P receptor [2] = target: T1, Substance-P receptor; test: The compound was evaluated in vitro for the antagonistic activity against substance P receptor in guinea pig myenteric plexus longitudinal muscle strips.; format: functional; settings: read-out: pA2 (converted)

T1 sequence (P30547 whole entry): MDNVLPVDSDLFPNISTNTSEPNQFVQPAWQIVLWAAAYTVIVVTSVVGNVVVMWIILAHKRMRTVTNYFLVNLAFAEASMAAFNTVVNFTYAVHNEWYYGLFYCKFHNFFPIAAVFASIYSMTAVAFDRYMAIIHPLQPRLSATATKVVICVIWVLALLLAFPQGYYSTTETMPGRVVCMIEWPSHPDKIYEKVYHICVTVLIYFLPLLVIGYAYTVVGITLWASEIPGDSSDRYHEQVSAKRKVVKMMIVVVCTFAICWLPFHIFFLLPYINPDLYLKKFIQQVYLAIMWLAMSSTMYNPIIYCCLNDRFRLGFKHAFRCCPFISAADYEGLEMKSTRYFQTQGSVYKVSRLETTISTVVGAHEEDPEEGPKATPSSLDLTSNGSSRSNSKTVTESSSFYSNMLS

Compound	Kb (Substance-P receptor [1]) [nM]	Kb (Substance-P receptor [2]) [nM]
CC(C)C[C@H](NC(=O)[C@@H](Cc1c[nH]c2ccccc12)c1cnc(C(=O)[C@H](Cc2ccccc2)NC(=O)[C@@H](Cc2c[nH]c3ccccc23)NC(=O)[C@@H]2CCCN2)s1)C(=O)N[C@@H](Cc1ccccc1)C(N)=O	–	1260
CC(C)C[C@H](NC(=O)[C@@H](Cc1c[nH]c2ccccc12)NC(=O)[C@H](Cc1ccccc1)c1cnc([C@@H](Cc2c[nH]c3ccccc23)NC(=O)[C@@H]2CCCN2)o1)C(=O)N[C@@H](Cc1ccccc1)C(N)=O	–	501
H-PWFWLF-NH2	–	398

Next, values leading:

Kb (Substance-P receptor [1]) [nM]	Kb (Substance-P receptor [2]) [nM]	Compound
126	–	CC(C)C[C@H](NC(=O)[C@@H](Cc1c[nH]c2ccccc12)NC(=O)[C@H](Cc1ccccc1)c1cnc([C@H](Cc2c[nH]c3ccccc23)NC(=O)[C@@H]2CCCN2)s1)C(=O)N[C@@H](Cc1ccccc1)C(N)=O
–	39.8	CC(C)C[C@H](NC(=O)[C@@H](Cc1c[nH]c2ccccc12)NC(=O)[C@H](Cc1ccccc1)c1cnc([C@@H](Cc2c[nH]c3ccccc23)NC(=O)[C@@H]2CCCN2)s1)C(=O)N[C@@H](Cc1ccccc1)C(N)=O
–	200	CC(C)C[C@H](NC(=O)[C@@H](Cc1c[nH]c2ccccc12)NC(=O)[C@H](Cc1ccccc1)c1c[nH]c([C@@H](Cc2c[nH]c3ccccc23)NC(=O)[C@@H]2CCCN2)n1)C(=O)N[C@@H](Cc1ccccc1)C(N)=O
